The text below walks through data of patent publication US11186554B2, “Non-fused tricyclic compounds” (VIVACE THERAPEUTICS, INC., priority 2017, dated 2021).

One assay deals with firefly luciferase activity. The experiment in a line: Dual-Glo firefly/renilla luciferase reporter assay in cells. Conditions: 24 h, read-out: Firefly Luciferase IC50 (μM). Type of assay: cell-based.
For orientation: IC50 means the concentration needed to halve the response being measured. On to `OCCn1nnc(-c2cc(OC(F)F)ccc2Nc2ccc(C(F)(F)F)cc2)n1` [Compound 260, 2-(5-(5-(difluoromethoxy)-2-((4-(trifluoromethyl)phenyl)amino)phenyl)-2H-tetrazol-2-yl)ethanol], for which the IC50 is under 0.1 µM.
Turning to `OCCn1nnc(-c2cnccc2Nc2ccc(C(F)(F)F)cc2)n1` [Compound 78, 2-[5-[4-[4-(trifluoromethyl)anilino]-3-pyridyl]tetrazol-2-yl]ethanol], the concentration for half-maximal inhibition (IC50) was in the range of 1 to 5 µM.
As for `OCCn1nnc(-c2ccccc2Nc2ccc(Br)cc2)n1` [Compound 207, 2-(5-(2-((4-bromophenyl)amino)phenyl)-2H-tetrazol-2-yl)ethan-1-01], the half-inhibitory concentration (IC50) fell in the range of 0.1 to 1 µM.
For `FC(F)OCCn1nnc(-c2ccccc2Nc2ccc(C(F)(F)F)cc2)n1` [Compound 183, 2-(2-(2-(difluoromethoxy)ethyl)-2H-tetrazol-5-yl)-N-(4-(trifluoromethyl)phenyl)aniline], the IC50 lay within 0.1 to 1 µM.
On the same count and under the same terms, next, `OCCn1nnc(-c2ccccc2Nc2ccc(OC(F)(F)F)cc2)n1` [Compound 11, 2-(5-(2-((4-(Trifluoromethoxy)phenyl)amino)phenyl)-2H-tetrazol-2-yl)ethanol]: under 0.1 µM; `OCCn1nnc(-c2ccccc2Nc2ccc(SC(F)F)cc2)n1` [Compound 31, 2-[5-[2-[4-(difluoromethylsulfanyl)anilino]phenyl]tetrazol-2-yl]ethanol]: 0.1 to 1 µM.
As to `OCCn1nnc(-c2ccccc2Nc2ccccc2F)n1` [Compound 36, 2-(5-(2-((2-fluorophenyl)amino)phenyl)-2H-tetrazol-2-yl)ethanol], the IC50 lay in the range of 1 to 5 µM.
On the same count and under the same terms, next, `CCc1ccc(Nc2ccccc2-c2nnn(CCO)n2)cc1` [Compound 9, 2-[5-[2-(4-ethylanilino)phenyl]tetrazol-2-yl]ethanol]: 0.1 to 1 µM; `OCCn1nnc(-c2ccc(Cl)cc2Nc2ccc(C(F)(F)F)cc2)n1` [Compound 239, 2-(5-(4-chloro-2-((4-(trifluoromethyl)phenyl)amino)phenyl)-2H-tetrazol-2-yl)ethanol]: under 0.1 µM.
On to `OCCn1nnc(-c2cc(Cl)ccc2Nc2ccc(C(F)(F)F)cc2)n1` [Compound 238, 2-(5-(5-chloro-2-((4-(trifluoromethyl)phenyl)amino)phenyl)-2H-tetrazol-2-yl)ethanol], for which the half-inhibitory concentration (IC50) is under 0.1 µM.

Staying with this assay, now noted: 24 hrs compound treatment, starting from 3 uM, 1:3 dilution, 10 points; read-out: Firefly Luciferase IC50.
`NS(=O)(=O)NCCn1nnc(-c2ccccc2Nc2ccc(C(F)(F)F)cc2)n1` [Compound 99, 2-[2-(sulfamoylamino)ethyl]-5-[2-[4-(trifluoromethyl)anilino]phenyl]tetrazole]: the IC50 is 1 to 5 µM.
On the same count and under the same terms, next, `C[C@H](O)[C@H](C)n1nnc(-c2ccccc2Nc2ccc(C(F)(F)F)cc2)n1` [Compound 192, (2S,3S)-3-(5-(2-((4-(trifluoromethyl)phenyl)amino)phenyl)-2H-tetrazol-2-yl)butan-2-ol]: under 0.1 µM.
On the same count and under the same terms, next, `[O-][S+]1CC(O)(Cn2nnc(-c3ccccc3Nc3ccc(C(F)(F)F)cc3)n2)C1` (stereo not drawn) [Compound 245, 1-oxo-3-[[5-[2-[4-(trifluoromethyl)anilino]phenyl]tetrazol-2-yl]methyl]thietan-3-ol]: 0.1 to 1 µM.
On the same count and under the same terms, as for `CO[C@@H](C)[C@@H](C)n1nnc(-c2ccccc2Nc2ccc(C(F)(F)F)cc2)n1` [Compound 212, 2-(2-((2R,3S)-3-methoxybutan-2-yl)-2H-tetrazol-5-yl)-N-(4-(trifluoromethyl)phenyl)aniline], the figure is under 0.1 µM.
Turning to `OC1(Cn2nnc(-c3ccccc3Nc3ccc(C(F)(F)F)cc3)n2)COC1` [Compound 186, 3-((5-(2-((4-(trifluoromethyl)phenyl)amino)phenyl)-2H-tetrazol-2-yl)methyl) oxetan-3-ol], the IC50 was under 0.1 µM.
As for `CCOC(=O)C(C)n1nnc(-c2ccccc2Nc2ccc(C(F)(F)F)cc2)n1` (stereo not drawn) [Compound 116, ethyl 2-[5-[2-[4-(trifluoromethyl)anilino]phenyl]tetrazol-2-yl]propanoate], the concentration for half-maximal inhibition (IC50) is under 0.1 µM.
For the compound `C[C@@H](O)[C@H](C)n1nnc(-c2ccccc2Nc2ccc(C(F)(F)F)cc2)n1` [Compound 194, (2R,3S)-3-(5-(2-((4-(trifluoromethyl)phenyl)amino)phenyl)-2H-tetrazol-2-yl)butan-2-ol], the IC50 was under 0.1 µM.
On the same count and under the same terms, next, `FC(F)(F)c1ccc(Nc2ccccc2-c2nnn(C3CNC3)n2)cc1` [Compound 221, 2-(2-(azetidin-3-yl)-2H-tetrazol-5-yl)-N-(4-(trifluoromethyl)phenyl)aniline]: 1 to 5 µM; `NC(=O)NCCn1nnc(-c2ccccc2Nc2ccc(C(F)(F)F)cc2)n1` [Compound 108, 2-[5-[2-[4-(trifluoromethyl)anilino]phenyl]tetrazol-2-yl]ethylurea]: under 0.1 µM; `OC1(Cn2nnc(-c3ccccc3Nc3ccc(C(F)(F)F)cc3)n2)CCCN(c2ccccc2)C1` (stereo not drawn) [Compound 176]: 0.1 to 1 µM.
For `CCOC(=O)Cn1cc(-c2ccccc2Nc2cccc(C(F)(F)F)c2)cn1` [Compound 58, ethyl 2-(4-(2-((3-(trifluoromethyl)phenyl)amino)phenyl)-1H-pyrazol-1-yl)acetate], the half-inhibitory concentration (IC50) is 0.1 to 1 µM.
Still for that read-out and setting: as for `OCCCn1nnc(-c2ccccc2Nc2cccc(C(F)(F)F)c2)n1` [Compound 13, 3-[5-[2-[3-(trifluoromethyl)anilino]phenyl]tetrazol-2-yl]propan-1-ol], the figure is 0.1 to 1 µM.
On the same count and under the same terms, as for `COCC(C)n1nnc(-c2ccccc2Nc2ccc(C(F)(F)F)cc2)n1` (stereo not drawn) [Compound 129, 2-(2-(1-methoxypropan-2-yl)-2H-tetrazol-5-yl)-N-(4-(trifluoromethyl)phenyl) Aniline], the figure is under 0.1 µM; as for `CC(C)(C)OC(=O)N1CCCC(O)(Cn2nnc(-c3ccccc3Nc3ccc(C(F)(F)F)cc3)n2)C1` (stereo not drawn) [Compound 147], 1 to 5 µM; as for `FC(F)(F)c1ccc(Nc2ccccc2-c2nnn(CC3CCC3)n2)cc1` [Compound 170, 2-(2-(Cyclobutylmethyl)-2H-tetrazol-5-yl)-N-(4-(trifluoromethyl)phenyl)aniline], 0.1 to 1 µM.
The same measure, in the same setting: as for `OCCn1nnc(-c2ccccc2Nc2cc(Cl)c(Cl)c(Cl)c2)n1` [Compound 253, 2-(5-(2-((3,4,5-trichlorophenyl)amino)phenyl)-2H-tetrazol-2-yl)ethanol], the figure is 1 to 5 µM; as for `OCCn1nnc(-c2cc(C(F)F)ccc2Nc2ccc(C(F)(F)F)cc2)n1` [Compound 266, 2-[5-[5-(difluoromethyl)-2-[4-(trifluoromethyl)anilino]phenyl]tetrazol-2-yl]ethanol], 0.1 to 1 µM.
Turning to `CCOC(=O)Cn1ncc(-c2ccccc2Nc2ccc(C(F)(F)F)cc2)c1C` [Compound 77, ethyl 2-[5-methyl-4-[2-[4-(trifluoromethyl)anilino]phenyl]pyrazol-1-yl]acetate], the concentration for half-maximal inhibition (IC50) was under 0.1 µM.
In the case of `FC(F)(F)c1ccc(Nc2ccccc2-c2nnn(CC3COC3)n2)cc1` [Compound 166, 2-(2-(oxetan-3-ylmethyl)-2H-tetrazol-5-yl)-N-(4-(trifluoromethyl)phenyl) Aniline], the 50% inhibitory concentration (IC50) lay in the range of 0.1 to 1 µM.
Take `FC(F)(F)Oc1ccc(Nc2ccccc2-c2nnn(Cc3ccncc3)n2)cc1` [Compound 53, 2-[2-(4-pyridylmethyl)tetrazol-5-yl]-N-[4-(trifluoromethoxy)phenyl]aniline]: the half-inhibitory concentration (IC50) was 1 to 5 µM.
On the same count and under the same terms, as for `NCC(CO)n1nnc(-c2ccccc2Nc2ccc(C(F)(F)F)cc2)n1` (stereo not drawn) [Compound 259, 3-amino-2-(5-(2-((4-(trifluoromethyl)phenyl)amino)phenyl)-2H-tetrazol-2-yl)propan-1-ol], the figure is 0.1 to 1 µM; as for `OC1(Cn2nnc(-c3ccccc3Nc3ccc(C(F)(F)F)cc3)n2)CCOCC1` [Compound 138, 4-[[5-[2-[4-(trifluoromethyl)anilino]phenyl]tetrazol-2-yl]methyl]tetrahydropyran-4-ol], 0.1 to 1 µM.
Still for that read-out and setting: next, `NS(=O)(=O)Cn1nnc(-c2ccccc2Nc2ccc(C(F)(F)F)cc2)n1` [Compound 101, (5-(2-((4-(trifluoromethyl)phenyl)amino)phenyl)-2H-tetrazol-2-yl)methane sulfonamide]: 0.1 to 1 µM.
Turning to `OC1(Cn2nnc(-c3ccccc3Nc3ccc(C(F)(F)F)cc3)n2)CCNC1` (stereo not drawn) [Compound 153, 3-((5-(2-((4-(trifluoromethyl)phenyl)amino)phenyl)-2H-tetrazol-2-yl)methyl)pyrrolidin-3-ol], the half-inhibitory concentration (IC50) fell in the range of 0.1 to 1 µM.
On the same count and under the same terms, next, `CNC(=O)Cn1nnc(-c2ccccc2Nc2ccc(C(F)(F)F)cc2)n1` [Compound 42, N-methyl-2-[5-[2-[4-(trifluoromethyl)anilino]phenyl]tetrazol-2-yl]acetamide]: under 0.1 µM; `OCCn1nnc(-c2ccccc2Nc2ccc(F)cc2F)n1` [Compound 28, 2-(5-(2-((2,4-difluorophenyl)amino)phenyl)-2H-tetrazol-2-yl)ethan-1-ol]: 0.1 to 1 µM.
For `OCCn1nnc(-c2ccccc2Nc2ccc(F)c(F)c2)n1` [Compound 25, 2-[5-[2-(3,4-difluoroanilino)phenyl]tetrazol-2-yl]ethanol], the IC50 was 0.1 to 1 µM.
As to `FC(F)(F)Oc1ccc(Nc2ccccc2-c2nnn(Cc3ccccn3)n2)cc1` [Compound 54, 2-(2-(pyridin-2-ylmethyl)-2H-tetrazol-5-yl)-N-(4-(trifluoromethoxy)phenyl)aniline], the IC50 is 1 to 5 µM.
Same read-out and setting: next, `OCCn1nnc(-c2ccccc2Nc2ccc(C(F)(F)F)cc2)n1` [Compound 23, 2-(5-(2-((4-(Trifluoromethyl)phenyl)amino)phenyl)-2H-tetrazol-2-yl)ethanol]: under 0.1 µM; `CC(=O)N1CCC(O)(Cn2nnc(-c3ccccc3Nc3ccc(C(F)(F)F)cc3)n2)C1` (stereo not drawn) [Compound 154, 1-(3-hydroxy-3-((5-(2-((4-(trifluoromethyl)phenyl)amino)phenyl)-2H-tetrazol-2-yl)methyl)pyrrolidin-1-yl)ethanone]: 0.1 to 1 µM; `C[C@H](O)[C@@H](C)n1nnc(-c2ccccc2Nc2ccc(C(F)(F)F)cc2)n1` [Compound 195, (2S,3R)-3-(5-(2-((4-(trifluoromethyl)phenyl)amino)phenyl)-2H-tetrazol-2-yl)butan-2-ol]: under 0.1 µM.
On the same count and under the same terms, as for `CC(C)(O)Cn1nnc(-c2ccccc2Nc2ccc(C(F)(F)F)cc2)n1` [Compound 106], the figure is under 0.1 µM.
